{
  "source": "paper PMC2374418",
  "about": "“A prolonged methoxymorpholino doxorubicin (PNU-152243 or MMRDX) infusion schedule in patients with solid tumours: a phase 1 and pharmacokinetic study” (British Journal of Cancer, 2000)",
  "tested_on": "patients with intrinsic anthracycline-resistant tumours",
  "assay": "Phase I toxicity (CTC grading), MMRDX as 3 h intravenous infusion once every 4 weeks",
  "text": "Nowadays, anthracyclines play an important role in chemothera- peutic treatment of a wide variety of tumour types. The clinical use of anthracyclines is limited by their toxicity profile, especially irreversible, cumulative dose-related cardiotoxicity, and by intrinsic or acquired resistance of tumours cells. Mechanisms of this resistance consist of several pathways, such as overexpression of drug efflux pumps (i.e. P-glycoprotein), decrease in topoiso- merase II enzyme levels, and increase in cellular detoxifying capacity (Kaye and Merry, 1985; Deffie et al, 1989; de Jong et al, 1990; Ford and Hait, 1990; Roninson, 1997). Morpholinyl anthracyclines, such as methoxymorpholino doxorubicin (MMRDX or PNU-152243), were synthesized in search for new anthracyclines with at least partially novel modes of action, including activity on multidrug-resistant (MDR) tumours. MMRDX is a novel doxorubicin derivative in which the nitrogen atom of the daunosamine is enclosed in a methoxymor- pholino ring (Figure 1). […] The working mechanism of morpholinyl anthracyclines appears to be different from other anthracyclines. Morpholinyl anthracyclines inhibit ribosomal gene transcription as well as topoisomerase I-mediated DNA-cleavage (Wassermann et al, 1988, 1990). […] Metabolic conversion of MMRDX by human liver microsomes and NADPH potentiated the cytotoxicity in an ovarian carcinoma cell line (Lau et al, 1994). […] Therefore, we decided to perform a phase I study with MMRDX administered as a 3 h infusion every 4 weeks in order to try to increase the MTD as compared with bolus administration. In addition, we assessed pharmacokinetics of prolonged MMRDX-infusion. A prolonged methoxymorpholino doxorubicin (PNU- 152243 or MMRDX) infusion schedule in patients with solid tumours: a phase 1 and pharmacokinetic study E Fokkema1 , J Verweij2 , AT van Oosterom3 , DRA Uges1 , R Spinelli4 , O Valota4 , EGE de Vries1 and HJM Groen1 1 Department of Pulmonology, Department of Pharmacy, Department of Internal Medicine, University Hospital Groningen, PO Box 30.001, 9700 RB Groningen, The Netherlands; 2 Rotterdam Cancer Institute and University Hospital, Rotterdam, The Netherlands; 3 University Hospital Leuven, Belgium; 4 Pharmacia & Upjohn, Milan, Italy Summary The aim of this phase I study was to assess feasibility, pharmacokinetics and toxicity of methoxymorpholino doxorubicin (MMRDX or PNU-152243) administered as a 3 h intravenous infusion once every 4 weeks. […] The first cohort of patients was treated with 1 mg m-2 of MMRDX. The next cohorts received 1.25 mg m-2 and 1.5 mg m-2 respectively. […] (c) 2000 Cancer Research Campaign Keywords: methoxymorpholino doxorubicin; pharmacokinetics; phase I study 767 Received 6 January 1999 Revised 2 August 1999 Accepted 25 August 1999 Correspondence to: EGE de Vries British Journal of Cancer (2000) 82(4), 767-771 (c) 2000 Cancer Research Campaign DOI: 10.1054/ bjoc.1999.0996, available online at http://www.idealibrary.com on PATIENTS AND METHODS Patients The study was performed between December 1994 and June 1996. Patients with intrinsic anthracycline-resistant tumours were accrued in three different centres in Belgium and The Netherlands.",
  "data": [
    {"smiles": "COc1cccc2c1C(=O)c1c(O)c3c(c(O)c1C2=O)C[C@@](O)(C(=O)CO)C[C@@H]3O[C@H]1C[C@H](N2CCO[C@H](OC)C2)[C@H](O)[C@H](C)O1", "note": "[MMRDX, methoxymorpholino doxorubicin]", "values": [
      {"measurement": "Non-haematological toxicity", "setting": "1 mg m-2", "value": "did not exceed CTC grade II"},
      {"measurement": "Median (range) nadir of leucocytes over all evaluable cycles", "setting": "1.0 mg m-2", "value": "6.0 (3.9-15.1) x 109 l-1"},
      {"measurement": "Median (range) nadir of neutrophils over all evaluable cycles", "setting": "1.0 mg m-2", "value": "3.3 (2.4-12.7) x 109 l-1"},
      {"measurement": "Median (range) nadir of platelets over all evaluable cycles", "setting": "1.0 mg m-2", "value": "197 (130-356) x 109 1-1"},
      {"measurement": "Neutrophils, CTC grade III toxicity", "setting": "1.0 mg m-2, 7 cycles", "value": "0 % of total number of cycles"},
      {"measurement": "Neutrophils, CTC grade IV toxicity", "setting": "1.0 mg m-2, 7 cycles", "value": "0 % of total number of cycles"},
      {"measurement": "Leucocytes, CTC grade III toxicity", "setting": "1.0 mg m-2, 8 cycles", "value": "0 % of total number of cycles"},
      {"measurement": "Leucocytes, CTC grade IV toxicity", "setting": "1.0 mg m-2, 8 cycles", "value": "0 % of total number of cycles"},
      {"measurement": "Platelets, CTC grade III toxicity", "setting": "1.0 mg m-2, 8 cycles", "value": "0 % of total number of cycles"},
      {"measurement": "Platelets, CTC grade IV toxicity", "setting": "1.0 mg m-2, 8 cycles", "value": "0 % of total number of cycles"},
      {"measurement": "Median (range) nadir of leucocytes over all evaluable cycles", "setting": "1.25 mg m-2", "value": "2.7 (1.0-10.4) x 109 l-1"},
      {"measurement": "Median (range) nadir of neutrophils over all evaluable cycles", "setting": "1.25 mg m-2", "value": "1.9 (0.5-8.3) x 109 l-1"},
      {"measurement": "Median (range) nadir of platelets over all evaluable cycles", "setting": "1.25 mg m-2", "value": "190 (60-328) x 109 1-1"},
      {"measurement": "Nausea, vomiting and diarrhoea exceeding grade II", "setting": "1.25 mg m-2", "value": "one cycle"},
      {"measurement": "Transient elevations in total bilirubin reaching CTC grade II", "setting": "1.25 mg m-2", "value": "2/15"},
      {"measurement": "Leucocytes, CTC grade III toxicity", "setting": "1.25 mg m-2, 17 cycles", "value": "6 % of total number of cycles"},
      {"measurement": "Leucocytes, CTC grade IV toxicity", "setting": "1.25 mg m-2, 17 cycles", "value": "0 % of total number of cycles"},
      {"measurement": "Neutrophils, CTC grade III toxicity", "setting": "1.25 mg m-2, 17 cycles", "value": "0 % of total number of cycles"},
      {"measurement": "Neutrophils, CTC grade IV toxicity", "setting": "1.25 mg m-2, 17 cycles", "value": "0 % of total number of cycles"},
      {"measurement": "Platelets, CTC grade III toxicity", "setting": "1.25 mg m-2, 17 cycles", "value": "0 % of total number of cycles"},
      {"measurement": "Platelets, CTC grade IV toxicity", "setting": "1.25 mg m-2, 17 cycles", "value": "0 % of total number of cycles"},
      {"measurement": "Patients with grade III/IV haematological toxicity", "setting": "1.25 mg m-2, six patients treated", "value": "one patient"},
      {"measurement": "Death with neutropenic fever / sepsis during febrile neutropenia", "setting": "1.5 mg m-2", "value": "One patient"},
      {"measurement": "Grade III/IV fatigue", "setting": "1.5 mg m-2", "value": "one out of 11 cycles"},
      {"measurement": "Grade III/IV infection", "setting": "1.5 mg m-2", "value": "four out of 11 cycles"},
      {"measurement": "Median (range) nadir of leucocytes over all evaluable cycles", "setting": "1.5 mg m-2", "value": "1.4 (0.2-7.5) x 109 l-1"},
      {"measurement": "Median (range) nadir of neutrophils over all evaluable cycles", "setting": "1.5 mg m-2", "value": "0.5 (0.2-7.3) x 109 l-1"},
      {"measurement": "Median (range) nadir of platelets over all evaluable cycles", "setting": "1.5 mg m-2", "value": "55 (8-119) x 109 1-1"},
      {"measurement": "Nausea and vomiting exceeding grade II", "setting": "1.5 mg m-2", "value": "two out of 11 cycles"},
      {"measurement": "Patients with grade III/IV haematological toxicity", "setting": "1.5 mg m-2", "value": "all five patients"},
      {"measurement": "Transient elevations in total bilirubin reaching CTC grade II", "setting": "1.5 mg m-2", "value": "3/11"},
      {"measurement": "Neutrophils, CTC grade III toxicity", "setting": "1.5 mg m-2, 7 cycles", "value": "29 % of total number of cycles"},
      {"measurement": "Neutrophils, CTC grade IV toxicity", "setting": "1.5 mg m-2, 7 cycles", "value": "43 % of total number of cycles"},
      {"measurement": "Platelets, CTC grade III toxicity", "setting": "1.5 mg m-2, 9 cycles", "value": "22 % of total number of cycles"},
      {"measurement": "Platelets, CTC grade IV toxicity", "setting": "1.5 mg m-2, 9 cycles", "value": "11 % of total number of cycles"},
      {"measurement": "Leucocytes, CTC grade III toxicity", "setting": "1.5 mg m-2, 10 cycles", "value": "40 % of total number of cycles"},
      {"measurement": "Leucocytes, CTC grade IV toxicity", "setting": "1.5 mg m-2, 10 cycles", "value": "30 % of total number of cycles"},
      {"measurement": "Cycles reduced from 1.5 mg m-2 to 1.25 mg m-2 because of haematological toxicity", "setting": "1.5 mg m-2, three out of five patients", "value": "Four out of 11 cycles"},
      {"measurement": "Patients with neutropenic fever", "setting": "3 h i.v. infusion", "value": "Three patients"},
      {"measurement": "Maximum tolerated dose (MTD)", "setting": "3 h i.v. infusion every 4 weeks", "value": 1.25, "unit": "mg m-2"},
      {"measurement": "CTC grade III/IV nausea and vomiting", "setting": "3 h i.v. infusion, 1.25 mg m-2", "value": "1/18"},
      {"measurement": "Transient elevation in transaminases up to CTC grade III", "setting": "3 h i.v. infusion, 1.25 mg m-2", "value": "2/16"},
      {"measurement": "CTC grade III neutropenia", "setting": "3 h i.v. infusion, 1.5 mg m-2", "value": "2/7"},
      {"measurement": "CTC grade III/IV nausea and vomiting", "setting": "3 h i.v. infusion, 1.5 mg m-2", "value": "2/11"},
      {"measurement": "CTC grade IV neutropenia", "setting": "3 h i.v. infusion, 1.5 mg m-2", "value": "3/7"},
      {"measurement": "Thrombocytopenia grade III", "setting": "3 h i.v. infusion, 1.5 mg m-2", "value": "2/9"},
      {"measurement": "Thrombocytopenia grade IV", "setting": "3 h i.v. infusion, 1.5 mg m-2", "value": "1/9"}
    ]}
  ]
}
